# PubChem BioAssay (NCI)
#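 Dose response: 5 concentrations. Exposure: 48 h. Format: 96-well plates. Endpoint: linear interpolation; highest concentration if not reached. GI50: concentration for 50% inhibition of growth. TGI denotes the concentration required for complete inhibition of growth.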
# Key:
# Assay in all cases: NCI-60 cell line screen, 48 h
# OVCAR-8 ovarian = test system: OVCAR-8 ovarian
# SNB-19 CNS = test system: SNB-19 CNS
# K-562 leukemia = test system: K-562 leukemia
# SK-OV-3 ovarian = test system: SK-OV-3 ovarian
# NCI-H522 lung = test system: NCI-H522 lung
# COLO 205 colon = test system: COLO 205 colon
# SW-620 colon = test system: SW-620 colon
# OVCAR-3 ovarian = test system: OVCAR-3 ovarian
# SF-268 CNS = test system: SF-268 CNS
# OVCAR-4 ovarian = test system: OVCAR-4 ovarian
# KM12 colon = test system: KM12 colon
# IGROV1 ovarian = test system: IGROV1 ovarian
# OVCAR-5 ovarian = test system: OVCAR-5 ovarian
# MDA-MB-435 = test system: MDA-MB-435
# RXF 393 renal = test system: RXF 393 renal
# HCT-116 colon = test system: HCT-116 colon
# BT-549 breast = test system: BT-549 breast
# SK-MEL-28 melanoma = test system: SK-MEL-28 melanoma
# CAKI-1 renal = test system: CAKI-1 renal
# EKVX NSCLC = test system: EKVX NSCLC
# RPMI-8226 leukemia = test system: RPMI-8226 leukemia
# A498 renal = test system: A498 renal
# SR leukemia = test system: SR leukemia
# HOP-62 NSCLC = test system: HOP-62 NSCLC
# NCI/ADR-RES ovarian = test system: NCI/ADR-RES ovarian
# TK-10 renal = test system: TK-10 renal
# HOP-92 NSCLC = test system: HOP-92 NSCLC
# SK-MEL-2 melanoma = test system: SK-MEL-2 melanoma
# ACHN renal = test system: ACHN renal
# SK-MEL-5 melanoma = test system: SK-MEL-5 melanoma
# 786-0 renal = test system: 786-0 renal
# NCI-H226 lung = test system: NCI-H226 lung
# SN12C renal = test system: SN12C renal
# DU-145 prostate = test system: DU-145 prostate
# LOX IMVI melanoma = test system: LOX IMVI melanoma
# PC-3 prostate = test system: PC-3 prostate
# MCF7 breast = test system: MCF7 breast
# UACC-257 melanoma = test system: UACC-257 melanoma
# NCI-H460 lung = test system: NCI-H460 lung
# MOLT-4 leukemia = test system: MOLT-4 leukemia
# UO-31 renal = test system: UO-31 renal
# MDA-MB-231 breast = test system: MDA-MB-231 breast
# SF-295 CNS = test system: SF-295 CNS
# HL-60(TB) leukemia = test system: HL-60(TB) leukemia
# HS 578T breast = test system: HS 578T breast
# HCT-15 colon = test system: HCT-15 colon
# UACC-62 melanoma = test system: UACC-62 melanoma
# U251 CNS = test system: U251 CNS
# SF-539 CNS = test system: SF-539 CNS
# M14 melanoma = test system: M14 melanoma
# NCI-H23 lung = test system: NCI-H23 lung
# CCRF-CEM leukemia = test system: CCRF-CEM leukemia
# A549 NSCLC = test system: A549 NSCLC
# HCC-2998 colon = test system: HCC-2998 colon
# SNB-75 CNS = test system: SNB-75 CNS
# HT29 colon = test system: HT29 colon
# T-47D breast = test system: T-47D breast
smiles,measurement,setting,value
Cc1cc(S(N)(=O)=O)c(S/C(=N\NS(=O)(=O)c2ccccc2)c2ccc(Cl)c(Cl)c2)cc1Cl,GI50,OVCAR-8 ovarian,32.3 µM
same,TGI,OVCAR-8 ovarian,> 100 µM
same,GI50,SNB-19 CNS,78.8 µM
same,TGI,SNB-19 CNS,> 100 µM
same,GI50,K-562 leukemia,32.9 µM
same,TGI,K-562 leukemia,> 100 µM
same,GI50,SK-OV-3 ovarian,> 100 µM
same,TGI,SK-OV-3 ovarian,> 100 µM
same,GI50,NCI-H522 lung,89 µM
same,TGI,NCI-H522 lung,> 100 µM
same,GI50,COLO 205 colon,45.7 µM
same,TGI,COLO 205 colon,> 100 µM
same,GI50,SW-620 colon,37.3 µM
same,TGI,SW-620 colon,> 100 µM
same,GI50,OVCAR-3 ovarian,25.8 µM
same,TGI,OVCAR-3 ovarian,72.7 µM
same,GI50,SF-268 CNS,33.8 µM
same,TGI,SF-268 CNS,> 100 µM
same,GI50,OVCAR-4 ovarian,40.6 µM
same,TGI,OVCAR-4 ovarian,> 100 µM
same,GI50,KM12 colon,42 µM
same,TGI,KM12 colon,> 100 µM
same,GI50,IGROV1 ovarian,44 µM
same,TGI,IGROV1 ovarian,> 100 µM
same,GI50,OVCAR-5 ovarian,52.4 µM
same,TGI,OVCAR-5 ovarian,> 100 µM
same,GI50,MDA-MB-435,42.9 µM
same,TGI,MDA-MB-435,> 100 µM
same,GI50,RXF 393 renal,33.3 µM
same,TGI,RXF 393 renal,> 100 µM
same,GI50,HCT-116 colon,38 µM
same,TGI,HCT-116 colon,> 100 µM
same,GI50,BT-549 breast,38.8 µM
same,TGI,BT-549 breast,> 100 µM
same,GI50,SK-MEL-28 melanoma,84.1 µM
same,TGI,SK-MEL-28 melanoma,> 100 µM
same,GI50,CAKI-1 renal,36.5 µM
same,TGI,CAKI-1 renal,> 100 µM
same,GI50,EKVX NSCLC,48.1 µM
same,TGI,EKVX NSCLC,> 100 µM
same,GI50,RPMI-8226 leukemia,28.8 µM
same,TGI,RPMI-8226 leukemia,> 100 µM
same,GI50,A498 renal,35 µM
same,TGI,A498 renal,87.1 µM
same,GI50,SR leukemia,27.9 µM
same,TGI,SR leukemia,> 100 µM
same,GI50,HOP-62 NSCLC,63.5 µM
same,TGI,HOP-62 NSCLC,> 100 µM
same,GI50,NCI/ADR-RES ovarian,28.5 µM
same,TGI,NCI/ADR-RES ovarian,77.6 µM
same,GI50,TK-10 renal,52 µM
same,TGI,TK-10 renal,> 100 µM
same,GI50,HOP-92 NSCLC,93.4 µM
same,TGI,HOP-92 NSCLC,> 100 µM
same,GI50,SK-MEL-2 melanoma,> 100 µM
same,TGI,SK-MEL-2 melanoma,> 100 µM
same,GI50,ACHN renal,30 µM
same,TGI,ACHN renal,92.7 µM
same,GI50,SK-MEL-5 melanoma,40.6 µM
same,TGI,SK-MEL-5 melanoma,> 100 µM
same,GI50,786-0 renal,54.9 µM
same,TGI,786-0 renal,> 100 µM
same,GI50,NCI-H226 lung,45.1 µM
same,TGI,NCI-H226 lung,> 100 µM
same,GI50,SN12C renal,34.1 µM
same,TGI,SN12C renal,> 100 µM
same,GI50,DU-145 prostate,54.2 µM
same,TGI,DU-145 prostate,> 100 µM
same,GI50,LOX IMVI melanoma,36.1 µM
same,TGI,LOX IMVI melanoma,> 100 µM
same,GI50,PC-3 prostate,47.4 µM
same,TGI,PC-3 prostate,> 100 µM
same,GI50,MCF7 breast,30.5 µM
same,TGI,MCF7 breast,> 100 µM
same,GI50,UACC-257 melanoma,40.3 µM
same,TGI,UACC-257 melanoma,> 100 µM
same,GI50,NCI-H460 lung,29.5 µM
same,TGI,NCI-H460 lung,> 100 µM
same,GI50,MOLT-4 leukemia,30.3 µM
same,TGI,MOLT-4 leukemia,> 100 µM
same,GI50,UO-31 renal,54.5 µM
same,TGI,UO-31 renal,> 100 µM
same,GI50,MDA-MB-231 breast,28.7 µM
same,TGI,MDA-MB-231 breast,> 100 µM
same,GI50,SF-295 CNS,36.4 µM
same,TGI,SF-295 CNS,> 100 µM
same,GI50,HL-60(TB) leukemia,21.7 µM
same,TGI,HL-60(TB) leukemia,53.4 µM
same,GI50,HS 578T breast,29.9 µM
same,TGI,HS 578T breast,99.3 µM
same,GI50,HCT-15 colon,46.1 µM
same,TGI,HCT-15 colon,> 100 µM
same,GI50,UACC-62 melanoma,34.7 µM
same,TGI,UACC-62 melanoma,> 100 µM
same,GI50,U251 CNS,28.8 µM
same,TGI,U251 CNS,> 100 µM
same,GI50,SF-539 CNS,19.3 µM
same,TGI,SF-539 CNS,64.3 µM
same,GI50,M14 melanoma,92.3 µM
same,TGI,M14 melanoma,> 100 µM
same,GI50,NCI-H23 lung,20.3 µM
same,TGI,NCI-H23 lung,49.9 µM
same,GI50,CCRF-CEM leukemia,86 µM
same,TGI,CCRF-CEM leukemia,> 100 µM
same,GI50,A549 NSCLC,32.2 µM
same,TGI,A549 NSCLC,96.9 µM
CCOC(=O)/N=c1\ssc(Cl)c1Cl,GI50,OVCAR-8 ovarian,19.7 µM
same,TGI,OVCAR-8 ovarian,55.1 µM
same,GI50,SNB-19 CNS,23.7 µM
same,TGI,SNB-19 CNS,56.9 µM
same,GI50,K-562 leukemia,1.93 µM
same,TGI,K-562 leukemia,> 100 µM
same,GI50,SK-OV-3 ovarian,20.6 µM
same,TGI,SK-OV-3 ovarian,45.6 µM
same,GI50,NCI-H522 lung,3.87 µM
same,TGI,NCI-H522 lung,95.9 µM
same,GI50,COLO 205 colon,19 µM
same,TGI,COLO 205 colon,44.8 µM
same,GI50,SW-620 colon,0.599 µM
same,TGI,SW-620 colon,14.7 µM
same,GI50,OVCAR-3 ovarian,6.53 µM
same,TGI,OVCAR-3 ovarian,20.9 µM
same,GI50,HCC-2998 colon,2.83 µM
same,TGI,HCC-2998 colon,5.39 µM
same,GI50,SF-268 CNS,17.4 µM
same,TGI,SF-268 CNS,41.6 µM
same,GI50,OVCAR-4 ovarian,35.5 µM
same,TGI,OVCAR-4 ovarian,> 100 µM
same,GI50,KM12 colon,16.7 µM
same,TGI,KM12 colon,35.9 µM
same,GI50,OVCAR-5 ovarian,4.86 µM
same,TGI,OVCAR-5 ovarian,28.1 µM
same,GI50,MDA-MB-435,15.2 µM
same,TGI,MDA-MB-435,30.8 µM
same,GI50,RXF 393 renal,3.01 µM
same,TGI,RXF 393 renal,10.6 µM
same,GI50,HCT-116 colon,3.35 µM
same,TGI,HCT-116 colon,> 100 µM
same,GI50,BT-549 breast,2.77 µM
same,TGI,BT-549 breast,7.21 µM
same,GI50,SK-MEL-28 melanoma,3.9 µM
same,TGI,SK-MEL-28 melanoma,27.1 µM
same,GI50,CAKI-1 renal,14.9 µM
same,TGI,CAKI-1 renal,29.4 µM
same,GI50,EKVX NSCLC,19.9 µM
same,TGI,EKVX NSCLC,42.7 µM
same,GI50,RPMI-8226 leukemia,3.52 µM
same,TGI,RPMI-8226 leukemia,> 100 µM
same,GI50,SNB-75 CNS,30.6 µM
same,TGI,SNB-75 CNS,87.7 µM
same,GI50,SR leukemia,0.414 µM
same,TGI,SR leukemia,> 100 µM
same,GI50,HOP-62 NSCLC,43.7 µM
same,TGI,HOP-62 NSCLC,> 100 µM
same,GI50,NCI/ADR-RES ovarian,4.11 µM
same,TGI,NCI/ADR-RES ovarian,> 100 µM
same,GI50,TK-10 renal,4.72 µM
same,TGI,TK-10 renal,18.5 µM
same,GI50,HOP-92 NSCLC,5.66 µM
same,TGI,HOP-92 NSCLC,> 100 µM
same,GI50,HT29 colon,4.43 µM
same,TGI,HT29 colon,> 100 µM
same,GI50,T-47D breast,17.2 µM
same,TGI,T-47D breast,42.6 µM
same,GI50,SK-MEL-2 melanoma,12.1 µM
same,TGI,SK-MEL-2 melanoma,60.4 µM
same,GI50,ACHN renal,1.95 µM
same,TGI,ACHN renal,4.37 µM
same,GI50,SK-MEL-5 melanoma,3.9 µM
same,TGI,SK-MEL-5 melanoma,19.1 µM
same,GI50,786-0 renal,12.8 µM
same,TGI,786-0 renal,> 100 µM
same,GI50,NCI-H226 lung,27.8 µM
same,TGI,NCI-H226 lung,> 100 µM
same,GI50,SN12C renal,6.7 µM
same,TGI,SN12C renal,25.8 µM
same,GI50,DU-145 prostate,4.72 µM
same,TGI,DU-145 prostate,19.4 µM
same,GI50,LOX IMVI melanoma,1.9 µM
same,TGI,LOX IMVI melanoma,3.99 µM
same,GI50,PC-3 prostate,15.8 µM
same,TGI,PC-3 prostate,36 µM
same,GI50,MCF7 breast,3.54 µM
same,TGI,MCF7 breast,16.8 µM
same,GI50,UACC-257 melanoma,15.3 µM
same,TGI,UACC-257 melanoma,30.7 µM
same,GI50,NCI-H460 lung,21.3 µM
same,TGI,NCI-H460 lung,54.3 µM
same,GI50,MOLT-4 leukemia,3.06 µM
same,TGI,MOLT-4 leukemia,> 100 µM
same,GI50,UO-31 renal,4.97 µM
same,TGI,UO-31 renal,> 100 µM
same,GI50,MDA-MB-231 breast,6.95 µM
same,TGI,MDA-MB-231 breast,28.7 µM
same,GI50,SF-295 CNS,16.7 µM
same,TGI,SF-295 CNS,33.2 µM
same,GI50,HL-60(TB) leukemia,6.41 µM
same,TGI,HL-60(TB) leukemia,> 100 µM
same,GI50,UACC-62 melanoma,14 µM
same,TGI,UACC-62 melanoma,29.6 µM
same,GI50,U251 CNS,3.34 µM
same,TGI,U251 CNS,13.8 µM
same,GI50,SF-539 CNS,2.87 µM
same,TGI,SF-539 CNS,8.97 µM
same,GI50,M14 melanoma,7.44 µM
same,TGI,M14 melanoma,> 100 µM
same,GI50,NCI-H23 lung,3.25 µM
same,TGI,NCI-H23 lung,11.3 µM
same,GI50,CCRF-CEM leukemia,0.646 µM
same,TGI,CCRF-CEM leukemia,> 100 µM
same,GI50,A549 NSCLC,24.1 µM
same,TGI,A549 NSCLC,73.8 µM
